Laboratory results as given in BindingDB's records for doi:10.7270/Q2R78CMH (Sanford-Burnham Center for Chemical Genomics, 2008).

Target: T1, Bcl-2-like protein 10 (Homo sapiens, UniProt Q9HD36)
T1 sequence (Q9HD36 whole entry): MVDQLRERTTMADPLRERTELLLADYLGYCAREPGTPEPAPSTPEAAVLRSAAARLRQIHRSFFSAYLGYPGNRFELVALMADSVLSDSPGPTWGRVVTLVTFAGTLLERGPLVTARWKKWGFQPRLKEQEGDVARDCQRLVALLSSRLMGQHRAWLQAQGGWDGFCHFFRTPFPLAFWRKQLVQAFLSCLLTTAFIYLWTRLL
Experiment: Biochemical fluorescence polarization EC50 measurement of human Bcl-2-like protein 10 inhibition, TR3-derived (AID 1243)

SMILES	EC50
Clc1ccc(C2CC(c3ccccc3)=Nc3ncnn32)cc1 (stereo unspecified) [7-(4-chlorophenyl)-5-phenyl-1,7-dihydro-[1,2,4]triazolo[1,5-a]pyrimidine]	14.2 µM
COc1ccccc1NC(=O)C1=C(C)N=C(SCC(=O)c2ccc(Br)cc2)C(C#N)C1c1ccco1 (stereo unspecified) [BIM-0025022.P001]	6.24 µM
C=c1c(C#N)c2[nH]c(N)c(C#N)c(C)c-2c1=Cc1ccc(-c2ccc(C(=O)O)c(Cl)c2)o1	1.65 µM
O=C1C=CC(=O)C(C(C=NCc2ccccc2)[N+](=O)[O-])=C1 (stereo unspecified) [BIM-0048185.P001]	5.7 µM

More lines, in order of falling EC50, values ahead:

EC50	SMILES
23.8 µM	O=C1c2ccccc2C(O)C12N=Nc1n[nH]c(=S)n1N2 (stereo unspecified) [BIM-0026580.P001]
9.64 µM	O=C(O)c1cccc(-c2ccc(CN=Nc3ccc([N+](=O)[O-])cn3)o2)c1
